Results reported in ChEMBL document CHEMBL3997792, “Identification of the First Selective Activin Receptor-Like Kinase 1 Inhibitor, a Reversible Version of L-783277” (J Med Chem, 2017).
pIC50: −log10 of the molar value. Calls of active or inactive are those of the source. The calls are words filed in the database; no cut-off is given here.

Experiments:
[1] = target: Vascular endothelial growth factor receptor 3 (Homo sapiens, UniProt P35916); assay: Inhibition of human FLT4 using poly[Glu:Tyr] (4:1) as substrate in presence of [gamma-33P]-ATP by scintillation counting method
Sequence of Vascular endothelial growth factor receptor 3 (P35916 whole entry): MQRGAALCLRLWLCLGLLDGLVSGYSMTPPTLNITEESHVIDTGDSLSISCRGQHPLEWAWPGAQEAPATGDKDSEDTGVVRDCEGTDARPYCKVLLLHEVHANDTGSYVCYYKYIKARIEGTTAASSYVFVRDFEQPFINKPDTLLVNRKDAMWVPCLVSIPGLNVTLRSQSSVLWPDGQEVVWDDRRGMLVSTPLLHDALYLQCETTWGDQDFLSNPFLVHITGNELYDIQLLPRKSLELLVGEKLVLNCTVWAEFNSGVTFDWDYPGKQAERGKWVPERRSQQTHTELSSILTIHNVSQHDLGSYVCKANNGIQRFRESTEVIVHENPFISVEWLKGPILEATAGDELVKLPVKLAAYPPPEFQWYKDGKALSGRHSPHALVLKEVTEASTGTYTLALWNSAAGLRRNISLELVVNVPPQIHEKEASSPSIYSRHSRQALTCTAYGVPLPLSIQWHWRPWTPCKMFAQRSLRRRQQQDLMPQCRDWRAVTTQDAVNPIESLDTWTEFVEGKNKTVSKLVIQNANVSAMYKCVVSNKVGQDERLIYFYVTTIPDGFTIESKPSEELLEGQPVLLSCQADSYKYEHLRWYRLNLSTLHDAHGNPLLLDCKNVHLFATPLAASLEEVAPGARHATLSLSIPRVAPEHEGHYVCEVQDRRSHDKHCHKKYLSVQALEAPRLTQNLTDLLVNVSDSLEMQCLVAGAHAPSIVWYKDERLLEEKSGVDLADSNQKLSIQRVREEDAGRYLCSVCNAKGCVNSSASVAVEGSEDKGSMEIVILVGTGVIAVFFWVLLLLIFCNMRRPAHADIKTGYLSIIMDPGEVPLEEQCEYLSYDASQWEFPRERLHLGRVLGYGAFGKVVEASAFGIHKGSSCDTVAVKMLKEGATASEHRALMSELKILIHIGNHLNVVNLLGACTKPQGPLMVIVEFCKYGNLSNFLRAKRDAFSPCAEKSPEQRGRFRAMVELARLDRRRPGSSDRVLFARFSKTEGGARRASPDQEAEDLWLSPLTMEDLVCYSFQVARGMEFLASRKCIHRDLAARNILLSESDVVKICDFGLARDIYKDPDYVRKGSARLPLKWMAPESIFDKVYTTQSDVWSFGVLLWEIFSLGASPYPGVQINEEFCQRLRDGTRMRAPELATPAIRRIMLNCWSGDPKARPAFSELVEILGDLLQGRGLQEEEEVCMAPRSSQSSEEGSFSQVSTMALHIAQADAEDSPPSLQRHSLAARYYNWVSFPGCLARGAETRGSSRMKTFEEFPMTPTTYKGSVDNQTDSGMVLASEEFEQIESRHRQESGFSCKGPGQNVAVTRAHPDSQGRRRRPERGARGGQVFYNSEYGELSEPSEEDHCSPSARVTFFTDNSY

[2] = target: Mitogen-activated protein kinase kinase kinase 7 (Homo sapiens) (UniProt O43318); details: 1 uM
Sequence of Mitogen-activated protein kinase kinase kinase 7 (Homo sapiens) (O43318 whole entry): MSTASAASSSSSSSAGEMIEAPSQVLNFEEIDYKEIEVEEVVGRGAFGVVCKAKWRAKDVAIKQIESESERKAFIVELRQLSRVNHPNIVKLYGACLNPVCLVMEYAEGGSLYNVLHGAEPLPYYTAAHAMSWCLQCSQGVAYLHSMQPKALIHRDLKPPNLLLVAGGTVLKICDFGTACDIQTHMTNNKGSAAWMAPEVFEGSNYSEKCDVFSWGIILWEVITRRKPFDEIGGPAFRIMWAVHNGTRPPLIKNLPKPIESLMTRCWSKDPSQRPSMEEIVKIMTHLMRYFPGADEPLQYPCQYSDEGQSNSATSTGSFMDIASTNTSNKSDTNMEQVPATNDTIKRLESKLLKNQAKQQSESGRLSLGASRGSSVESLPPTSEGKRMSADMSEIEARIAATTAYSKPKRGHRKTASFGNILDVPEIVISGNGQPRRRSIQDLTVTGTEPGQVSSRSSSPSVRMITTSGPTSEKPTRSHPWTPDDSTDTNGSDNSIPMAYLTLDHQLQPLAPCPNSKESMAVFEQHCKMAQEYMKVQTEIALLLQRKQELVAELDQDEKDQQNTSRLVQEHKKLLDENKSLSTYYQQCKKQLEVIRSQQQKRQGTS
Description: Inhibition of human TAK1 at 1 uM using casein as substrate in presence of [gamma-33P]-ATP by scintillation counting method relative to control

[3] = target: T1, Activin receptor type-1-like (Mus musculus) (UniProt Q61288); assay: Inhibition of BMP9-stimulated ALK1 in mouse C2C12 cells assessed as decrease in ERK1/2 phosphorylation at 0.1 to 10 uM pretreated for 2 hrs followed by BMP9-stimulation after 30 mins by western blot analysis; type: cell-based
T1 sequence (whole entry): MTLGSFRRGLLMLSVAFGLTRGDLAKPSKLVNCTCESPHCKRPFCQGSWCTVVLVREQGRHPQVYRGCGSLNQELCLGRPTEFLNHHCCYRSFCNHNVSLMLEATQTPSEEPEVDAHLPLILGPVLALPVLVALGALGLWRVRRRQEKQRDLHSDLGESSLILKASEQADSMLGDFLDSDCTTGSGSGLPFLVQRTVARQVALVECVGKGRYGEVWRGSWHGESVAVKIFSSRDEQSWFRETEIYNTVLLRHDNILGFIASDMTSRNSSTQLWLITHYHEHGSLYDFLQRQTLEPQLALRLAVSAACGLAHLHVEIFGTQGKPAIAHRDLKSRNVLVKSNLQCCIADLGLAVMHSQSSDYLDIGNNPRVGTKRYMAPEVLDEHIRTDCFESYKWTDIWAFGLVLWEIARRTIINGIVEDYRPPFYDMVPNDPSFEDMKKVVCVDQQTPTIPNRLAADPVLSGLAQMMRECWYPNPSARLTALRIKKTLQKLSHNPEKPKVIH

[4] = target: Dual specificity mitogen-activated protein kinase kinase 2 (Homo sapiens, UniProt P36507); assay: Inhibition of human MEK2 using ERK2 as substrate in presence of [gamma-33P]-ATP by scintillation counting method
Sequence of Dual specificity mitogen-activated protein kinase kinase 2 (P36507 whole entry): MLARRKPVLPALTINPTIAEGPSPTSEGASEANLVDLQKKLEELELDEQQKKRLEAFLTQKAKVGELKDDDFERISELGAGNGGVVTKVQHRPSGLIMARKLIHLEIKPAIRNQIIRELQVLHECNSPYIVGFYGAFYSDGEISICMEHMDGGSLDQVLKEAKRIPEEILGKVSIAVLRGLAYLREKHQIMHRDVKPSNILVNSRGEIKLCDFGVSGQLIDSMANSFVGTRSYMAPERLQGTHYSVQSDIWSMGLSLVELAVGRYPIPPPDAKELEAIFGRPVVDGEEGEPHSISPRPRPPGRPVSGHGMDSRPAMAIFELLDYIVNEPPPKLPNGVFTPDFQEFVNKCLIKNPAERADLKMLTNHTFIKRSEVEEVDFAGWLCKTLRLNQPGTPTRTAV

TGF-beta receptor type-1 [5] = target: T2, TGF-beta receptor type-1 (Mus musculus, UniProt Q64729); assay: Inhibition of ALK5 in mouse C2C12 assessed as decrease in TGFbeta1-induced Smad1/5 phosphorylation at 0.1 to 10 uM by Western blot method
T2 sequence (Q64729 whole entry): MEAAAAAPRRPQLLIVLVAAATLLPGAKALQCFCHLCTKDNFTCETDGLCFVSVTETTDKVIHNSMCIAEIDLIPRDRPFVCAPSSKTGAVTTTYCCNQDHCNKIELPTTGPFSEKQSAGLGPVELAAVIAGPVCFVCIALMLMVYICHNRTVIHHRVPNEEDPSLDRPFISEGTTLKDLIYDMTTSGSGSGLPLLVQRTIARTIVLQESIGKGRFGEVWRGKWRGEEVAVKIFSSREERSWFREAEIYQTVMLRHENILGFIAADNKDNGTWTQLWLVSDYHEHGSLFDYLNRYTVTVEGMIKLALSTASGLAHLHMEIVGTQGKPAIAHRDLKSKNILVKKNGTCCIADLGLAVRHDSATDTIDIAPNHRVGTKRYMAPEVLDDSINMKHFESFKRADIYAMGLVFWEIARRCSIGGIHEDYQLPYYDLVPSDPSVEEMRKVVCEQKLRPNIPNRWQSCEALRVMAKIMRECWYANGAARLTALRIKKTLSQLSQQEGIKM

[6] = target: Dual specificity mitogen-activated protein kinase kinase 6 (Homo sapiens, UniProt P52564); assay: Inhibition of human MKK6 using p38a as substrate in presence of [gamma-33P]-ATP by scintillation counting method
Sequence of Dual specificity mitogen-activated protein kinase kinase 6 (P52564 whole entry): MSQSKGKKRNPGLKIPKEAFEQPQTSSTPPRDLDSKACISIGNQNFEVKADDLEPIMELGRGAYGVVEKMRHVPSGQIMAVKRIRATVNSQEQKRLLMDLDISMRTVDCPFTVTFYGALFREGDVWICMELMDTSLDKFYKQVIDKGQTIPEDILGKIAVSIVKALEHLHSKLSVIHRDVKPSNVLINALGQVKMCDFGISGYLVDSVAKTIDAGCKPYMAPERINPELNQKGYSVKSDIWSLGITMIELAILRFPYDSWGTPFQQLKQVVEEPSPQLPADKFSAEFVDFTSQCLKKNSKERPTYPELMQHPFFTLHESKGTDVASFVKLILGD

[7] = target: T3, Activin receptor type-1-like (Homo sapiens, UniProt P37023); assay: Inhibition of human ALK1 using casein as substrate in presence of [gamma-33P]-ATP by scintillation counting method
T3 sequence (P37023 whole entry): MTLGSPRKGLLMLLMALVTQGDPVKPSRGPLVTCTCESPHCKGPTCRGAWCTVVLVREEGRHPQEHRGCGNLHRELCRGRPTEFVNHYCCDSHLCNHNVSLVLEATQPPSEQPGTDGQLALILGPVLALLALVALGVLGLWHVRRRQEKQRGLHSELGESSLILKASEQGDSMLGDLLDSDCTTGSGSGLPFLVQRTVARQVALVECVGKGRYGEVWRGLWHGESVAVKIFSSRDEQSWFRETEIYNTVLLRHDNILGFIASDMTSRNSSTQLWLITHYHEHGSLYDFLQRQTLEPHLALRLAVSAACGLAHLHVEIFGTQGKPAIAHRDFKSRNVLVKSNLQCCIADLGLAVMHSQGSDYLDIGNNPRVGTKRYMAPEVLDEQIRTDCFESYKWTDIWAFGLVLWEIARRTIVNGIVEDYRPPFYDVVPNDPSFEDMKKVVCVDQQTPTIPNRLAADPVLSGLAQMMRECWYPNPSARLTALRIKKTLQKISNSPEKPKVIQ

[8] = target: T1, Activin receptor type-1-like (Mus musculus); assay: Inhibition of BMP9-stimulated ALK1 in mouse C2C12 cells assessed as decrease in MEK phosphorylation at 0.1 to 10 uM pretreated for 2 hrs followed by BMP9-stimulation after 30 mins by western blot analysis; type: cell-based
[9] = target: Vascular endothelial growth factor receptor 2 (Homo sapiens, UniProt P35968); assay: Inhibition of human KDR using poly[Glu:Tyr] (4:1) as substrate in presence of [gamma-33P]-ATP by scintillation counting method
[10] = target: MAP kinase-interacting serine/threonine-protein kinase 2 (Homo sapiens) (UniProt Q9HBH9); details: 1 uM
Sequence of MAP kinase-interacting serine/threonine-protein kinase 2 (Homo sapiens) (Q9HBH9 whole entry, looked up): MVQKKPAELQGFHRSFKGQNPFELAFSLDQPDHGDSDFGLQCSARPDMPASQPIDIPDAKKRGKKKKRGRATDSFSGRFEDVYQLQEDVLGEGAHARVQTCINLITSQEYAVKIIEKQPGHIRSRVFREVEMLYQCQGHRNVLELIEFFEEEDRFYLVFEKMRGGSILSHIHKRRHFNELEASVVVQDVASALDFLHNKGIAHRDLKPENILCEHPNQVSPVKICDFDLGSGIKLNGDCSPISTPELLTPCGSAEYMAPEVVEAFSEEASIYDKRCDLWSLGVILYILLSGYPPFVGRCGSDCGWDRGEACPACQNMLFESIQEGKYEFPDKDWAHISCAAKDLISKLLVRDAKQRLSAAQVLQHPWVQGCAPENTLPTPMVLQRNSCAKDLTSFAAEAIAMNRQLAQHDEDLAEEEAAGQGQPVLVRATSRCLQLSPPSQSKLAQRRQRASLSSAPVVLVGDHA
Description: Inhibition of human MNK2 at 1 uM using myelin basic protein as substrate in presence of [gamma-33P]-ATP by scintillation counting method relative to control

[11] = target: T1, Activin receptor type-1-like (Mus musculus); assay: Inhibition of BMP9-stimulated ALK1 in mouse C2C12 cells assessed as decrease in p38 phosphorylation at 0.1 to 10 uM pretreated for 2 hrs followed by BMP9-stimulation after 30 mins by western blot analysis; type: cell-based
[12] = target: Dual specificity mitogen-activated protein kinase kinase 4 (Homo sapiens) (UniProt P45985); details: 1 uM
Description: Inhibition of human MKK4 at 1 uM using JNK1 as substrate in presence of [gamma-33P]-ATP by scintillation counting method relative to control

[13] = target: MAP kinase-interacting serine/threonine-protein kinase 1 (Homo sapiens) (UniProt Q9BUB5); details: 1 uM
Sequence of MAP kinase-interacting serine/threonine-protein kinase 1 (Homo sapiens) (Q9BUB5 whole entry, looked up): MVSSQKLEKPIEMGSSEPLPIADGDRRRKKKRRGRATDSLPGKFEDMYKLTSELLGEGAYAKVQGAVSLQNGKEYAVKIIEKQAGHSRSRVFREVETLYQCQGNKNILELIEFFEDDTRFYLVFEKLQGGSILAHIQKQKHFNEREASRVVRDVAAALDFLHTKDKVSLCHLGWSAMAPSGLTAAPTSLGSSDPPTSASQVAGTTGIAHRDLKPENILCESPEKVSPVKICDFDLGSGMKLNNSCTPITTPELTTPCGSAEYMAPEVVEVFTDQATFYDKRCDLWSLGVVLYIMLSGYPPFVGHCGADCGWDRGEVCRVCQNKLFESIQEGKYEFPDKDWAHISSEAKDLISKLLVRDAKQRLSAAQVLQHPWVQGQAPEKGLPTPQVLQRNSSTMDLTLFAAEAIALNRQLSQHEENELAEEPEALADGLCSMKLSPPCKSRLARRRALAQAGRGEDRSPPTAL
Description: Inhibition of human MNK1 at 1 uM using myelin basic protein as substrate in presence of [gamma-33P]-ATP by scintillation counting method relative to control

[14] = target: Receptor-type tyrosine-protein kinase FLT3 (Homo sapiens, UniProt P36888); assay: Inhibition of human FLT3 using EAIYAAPFAKKK peptide as substrate in presence of [gamma-33P]-ATP by scintillation counting method
[15] = target: Mitogen-activated protein kinase kinase kinase 20 (Homo sapiens) (UniProt Q9NYL2); details: 1 uM
Sequence of Mitogen-activated protein kinase kinase kinase 20 (Homo sapiens) (Q9NYL2 2-800 limits assumed): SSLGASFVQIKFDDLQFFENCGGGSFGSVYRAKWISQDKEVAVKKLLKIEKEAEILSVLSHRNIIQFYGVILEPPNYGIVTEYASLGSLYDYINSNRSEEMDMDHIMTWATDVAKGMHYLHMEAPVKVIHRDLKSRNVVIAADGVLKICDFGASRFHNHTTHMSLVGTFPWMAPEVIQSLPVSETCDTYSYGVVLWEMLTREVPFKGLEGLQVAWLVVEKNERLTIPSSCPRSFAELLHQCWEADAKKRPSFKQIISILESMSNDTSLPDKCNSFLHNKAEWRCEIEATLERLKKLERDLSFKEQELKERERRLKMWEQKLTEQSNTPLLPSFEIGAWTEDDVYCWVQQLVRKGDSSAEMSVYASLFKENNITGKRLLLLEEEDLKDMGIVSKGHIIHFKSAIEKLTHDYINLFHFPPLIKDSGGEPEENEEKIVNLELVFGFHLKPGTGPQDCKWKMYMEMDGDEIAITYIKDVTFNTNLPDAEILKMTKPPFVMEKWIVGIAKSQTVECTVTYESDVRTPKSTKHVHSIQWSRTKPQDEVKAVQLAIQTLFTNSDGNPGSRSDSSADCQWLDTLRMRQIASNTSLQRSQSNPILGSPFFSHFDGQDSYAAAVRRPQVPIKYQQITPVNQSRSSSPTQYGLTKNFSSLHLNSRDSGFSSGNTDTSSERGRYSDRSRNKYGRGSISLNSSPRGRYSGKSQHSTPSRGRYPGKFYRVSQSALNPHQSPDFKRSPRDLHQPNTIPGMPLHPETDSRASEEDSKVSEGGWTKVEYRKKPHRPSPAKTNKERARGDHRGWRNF
Description: Inhibition of human ZAK at 1 uM using myelin basic protein as substrate in presence of [gamma-33P]-ATP by scintillation counting method relative to control

[16] = target: Dual specificity mitogen-activated protein kinase kinase 6 (Homo sapiens) (UniProt P52564); assay: Inhibition of human MKK6 at 1 uM using p38a as substrate in presence of [gamma-33P]-ATP by scintillation counting method relative to control
Sequence of Dual specificity mitogen-activated protein kinase kinase 6 (Homo sapiens) (P52564 whole entry): as the sequence (P52564 whole entry) above

[17] = target: T1, Activin receptor type-1-like (Mus musculus); assay: Inhibition of BMP9-stimulated ALK1 in mouse C2C12 cells assessed as reduction in Smad1/5 phosphorylation at 0.1 to 10 uM pretreated for 2 hrs followed by BMP9-stimulation after 30 mins by western blot analysis; type: cell-based
[18] = target: TGF-beta receptor type-2 (Homo sapiens) (UniProt P37173); details: 1 uM
Description: Inhibition of human TGFbetaR2 at 1 uM using myelin basic protein as substrate in presence of [gamma-33P]-ATP by scintillation counting method relative to control

TGF-beta receptor type-1 [19] = target: T2, TGF-beta receptor type-1; assay: Inhibition of ALK5 in mouse C2C12 cells assessed as decrease in TGFbeta1-induced Smad2/3 phosphorylation at 0.1 to 10 uM by Western blot method; type: cell-based
[20] = target: T3, Activin receptor type-1-like; details: 0.1 to 10 uM
Description: Inhibition of ALK1 in human A375 cells assessed as decrease in MEK1/2 phosphorylation at 0.1 to 10 uM by western blot analysis

For `COc1cc(O)c2c(c1)CCC[C@H](O)[C@H](O)C(=O)/C=C\C[C@H](C)OC2=O`, the pIC50 [1] was 8.95, the inhibition [2] was over 80% and the inhibition [3] was “Active”. For the same compound, the pIC50 [4] was 8.09, the “inhibition (INH)” value (TGF-beta receptor type-1 [5]) was “Active” and the pIC50 [6] was 6.41. The pIC50 [7] was 6.90, the inhibition [8] was “Active” and the pIC50 [9] was 8.20. The inhibition [10] was over 80%, the inhibition [11] was “Active” and the inhibition [12] was over 80%. It also gave an inhibition [13] of over 80%, a pIC50 [14] of 8.80 and an inhibition [15] of over 80%. The inhibition [16] was over 80%, the inhibition [17] was “Active” and the inhibition [18] was over 80%. For the same compound, the “inhibition (INH)” value (TGF-beta receptor type-1 [19]) was “Active” and the inhibition [20] was “Active”.
